# Test results as given in patent publication US20190071416A1, “COMPOUNDS FOR TREATMENT OF CANCER AND EPIGENETICS” (Agency For Science, Technology and Research, priority 2015, published 2019).
# Target: T1, SMYD3 (Homo sapiens, UniProt Q9H7B4)
# T1 sequence (Q9H7B4 1-428): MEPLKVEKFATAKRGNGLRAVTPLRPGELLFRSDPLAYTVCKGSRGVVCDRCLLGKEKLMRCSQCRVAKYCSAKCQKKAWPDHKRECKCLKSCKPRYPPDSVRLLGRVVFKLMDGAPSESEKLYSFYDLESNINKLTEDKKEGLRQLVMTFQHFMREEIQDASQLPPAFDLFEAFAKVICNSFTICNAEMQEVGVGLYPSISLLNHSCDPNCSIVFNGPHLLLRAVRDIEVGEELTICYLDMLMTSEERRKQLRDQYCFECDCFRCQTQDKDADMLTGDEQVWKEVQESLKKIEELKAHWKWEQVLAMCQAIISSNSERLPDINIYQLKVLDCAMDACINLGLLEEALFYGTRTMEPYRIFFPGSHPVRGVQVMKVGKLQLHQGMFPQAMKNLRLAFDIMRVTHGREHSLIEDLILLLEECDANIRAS
# Test: SMYD3 biochemical assay (MTase-Glo, MAP3K2 peptide substrate)
# Conditions: Table 3; MTase assay, MAP3K2 peptide substrate; read-out: IC50
# How it was run: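 Luminescent readout of SAH production (coupled SAH→ATP conversion, MTase-Glo) after SMYD3 reacted 30 min at room temperature with 1.0 µM SAM and 10 µM MAP3K2 peptide, both final. Non-linear regression gave IC50 values.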
row,SMILES,IC50
1,"CCCOC(=O)N1CCN(C(=O)c2ccc3c(Cl)cc(-c4ccn(S(=O)(=O)N(C)C)c4)nc3c2)CC1 [B231, Propyl 4-(4-chloro-2-(1-(N,N-dimethylsulfamoyl)-1H-pyrrol-3-yl)quinoline-7-carbonyl)piperazine-1-carboxylate]",630 nM
2,"CCCOC(=O)N1CCN(C(=O)c2ccc3c(Cl)cc(-c4ccc5oc(C)nc5c4)nc3c2)CC1 [B237, Propyl 4-(4-chloro-2-(2-methylbenzo[d]oxazol-5-yl)quinoline-7-carbonyl)piperazine-1-carboxylate]",200 nM
3,"CCCOC(=O)N1CCN(C(=O)c2ccc3c(Cl)cc(-c4ccc(N5CCCC5)c(F)c4)nc3c2)CC1 [B238, Propyl 4-(4-chloro-2-(3-fluoro-4-(pyrrolidin-1-yl)phenyl)quinoline-7-carbonyl)piperazine-1-carboxylate]",3500 nM
4,"CCCOC(=O)N1CCN(C(=O)c2ccc3c(Cl)cc(-c4ccc(C(C)OCC)cc4)nc3c2)CC1 (stereo not drawn) [B239, Propyl 4-(4-chloro-2-(4-(1-ethoxyethyl)phenyl)quinoline-7-carbonyl)piperazine-1-carboxylate]",1300 nM
5,"CCCOC(=O)N1CCN(C(=O)c2ccc3c(Cl)cc(-c4ccc(COCC5CC5)cc4)nc3c2)CC1 [B242, Propyl 4-(4-chloro-2-(4-((cyclopropylmethoxy)methyl)phenyl)quinoline-7-carbonyl)piperazine-1-carboxylate]",670 nM
6,"CCCOC(=O)N1CCN(C(=O)c2ccc3c(Cl)cc(-c4ccc5ocnc5c4)nc3c2)C[C@H]1C [B243, Propyl (R)-4-(2-(benzo[d]oxazol-5-yl)-4-chloroquinoline-7-carbonyl)-2-methylpiperazine-1-carboxylate]",63 nM
7,"CCCOC(=O)N1CCN(C(=O)c2ccc3c(Cl)cc(-c4ccc(C(C)(C)O)cc4)nc3c2)CC1 [B244, Propyl 4-(4-chloro-2-(4-(2-hydroxypropan-2-yl)phenyl)quinoline-7-carbonyl)piperazine-1-carboxylate]",140 nM
8,"CNC(=O)c1ccc(-c2cc(Cl)c3ccc(C(=O)N4CCN(C(=O)OCCF)CC4)cc3n2)cc1 [B247, 2-Fluoroethyl 4-(4-chloro-2-(4-(methylcarbamoyl)phenyl)quinoline-7-carbonyl)piperazine-1-carboxylate]",7400 nM
9,"CCCOC(=O)N1CCN(C(=O)c2ccc3c(Cl)cc(-c4cn[nH]c4C(F)(F)F)nc3c2)CC1 [B250, Propyl 4-(4-chloro-2-(5-(trifluoromethyl)-1H-pyrazol-4-yl)quinoline-7-carbonyl)piperazine-1-carboxylate]",4900 nM
10,"CCCOC(=O)N1CCN(C(=O)c2ccc3c(Cl)cc(-c4ccn(S(C)(=O)=O)c4)nc3c2)CC1 [B252, Propyl 4-(4-chloro-2-(1-(methylsulfonyl)-1H-pyrrol-3-yl)quinoline-7-carbonyl)piperazine-1-carboxylate]",520 nM
11,"CCCOC(=O)N1CCN(C(=O)c2ccc3c(Cl)cc(-c4ccc(CO)c(F)c4)nc3c2)CC1 [B257, Propyl 4-(4-chloro-2-(3-fluoro-4-(hydroxymethyl)phenyl)quinoline-7-carbonyl)piperazine-1-carboxylate]",150 nM
12,"CCCOC(=O)N1CCN(C(=O)c2ccc3c(Cl)cc(-c4cc(F)c(CN)c(F)c4)nc3c2)CC1 [B258, Propyl 4-(2-(4-(aminomethyl)-3,5-difluorophenyl)-4-chloroquinoline-7-carbonyl)piperazine-1-carboxylate]",850 nM
13,"C[C@@H]1CN(C(=O)c2ccc3c(Cl)cc(C4CC4)nc3c2)CCN1C(=O)OCCF [B259, 2-Fluoroethyl (R)-4-(4-chloro-2-cyclopropylquinoline-7-carbonyl)-2-methylpiperazine-1-carboxylate]",2600 nM
14,"C[C@H]1CN(C(=O)OCCF)CCN1C(=O)c1ccc2c(Cl)cc(C3CC3)nc2c1 [B260, 2-Fluoroethyl (S)-4-(4-chloro-2-cyclopropylquinoline-7-carbonyl)-3-methylpiperazine-1-carboxylate]",4900 nM
15,"CCCOC(=O)N1CCN(C(=O)c2ccc3c(Cl)c(F)c(-c4ccn(C)c4)nc3c2)CC1 [B262, Propyl 4-(4-chloro-3-fluoro-2-(1-methyl-1H-pyrrol-3-yl)quinoline-7-carbonyl)piperazine-1-carboxylate]",390 nM

# The remaining compounds from weak to strong by IC50, led by results:
row,IC50,SMILES
1,13900 nM,"CCCOC(=O)N1CCN(C(=O)c2ccc3c(Cl)cc(C4(F)CC4)nc3c2)CC1 [B263, Propyl 4-(4-chloro-2-(1-fluorocyclopropyl)quinoline-7-carbonyl)piperazine-1-carboxylate]"
2,2700 nM,"Cn1cc(-c2cc(Cl)c3ccc(C(=O)N4CCN(C(=O)OCCF)CC4)cc3n2)cn1 [B261, 2-Fluoroethyl 4-(4-chloro-2-(1-methyl-1H-pyrazol-4-yl)quinoline-7-carbonyl)piperazine-1-carboxylate]"
3,1010 nM,"CNC(=O)c1ccc(-c2cc(Cl)c3ccc(C(=O)N4CCN(C(=O)OCC(C)C)CC4)cc3n2)cc1 [B245, Isobutyl 4-(4-chloro-2-(4-(methylcarbamoyl)phenyl)quinoline-7-carbonyl)piperazine-1-carboxylate]"
4,500 nM,"CCCOC(=O)N1CCN(C(=O)c2ccc3c(Cl)cc(-c4ccc(COCC)cc4)nc3c2)CC1 [B256, Propyl 4-(4-chloro-2-(4-(ethoxymethyl)phenyl)quinoline-7-carbonyl)piperazine-1-carboxylate]"
5,490 nM,"CCCOC(=O)N1CCN(C(=O)c2ccc3c(Cl)cc(-c4cc(F)c(C(N)=O)c(F)c4)nc3c2)CC1 [B253, Propyl 4-(2-(4-carbamoyl-3,5-difluorophenyl)-4-chloroquinoline-7-carbonyl)piperazine-1-carboxylate]"
6,360 nM,"CCCOC(=O)N1CCN(C(=O)c2ccc3c(Cl)cc(-c4ccc(C(=O)NC)c(C)c4)nc3c2)CC1 [B236, Propyl 4-(4-chloro-2-(3-methyl-4-(methylcarbamoyl)phenyl)quinoline-7-carbonyl)piperazine-1-carboxylate]"
7,270 nM,"CC(C)COC(=O)N1CCN(C(=O)c2ccc3c(Cl)cc(-c4ccn(C)c4)nc3c2)CC1 [B246, Isobutyl 4-(4-chloro-2-(1-methyl-1H-pyrrol-3-yl)quinoline-7-carbonyl)piperazine-1-carboxylate]"
8,250 nM,"CCCOC(=O)N1CCN(C(=O)c2ccc3c(Cl)cc(-c4ccc(C(=O)NC)c(F)c4)nc3c2)[C@@H](C)C1 [B240, Propyl (S)-4-(4-chloro-2-(3-fluoro-4-(methylcarbamoyl)phenyl)quinoline-7-carbonyl)-3-methylpiperazine-1-carboxylate]"
9,240 nM,"CCCOC(=O)N1CCN(C(=O)c2ccc3c(Cl)cc(-c4ccc5ocnc5c4)nc3c2)[C@@H](C)C1 [B241, Propyl (S)-4-(2-(benzo[d]oxazol-5-yl)-4-chloroquinoline-7-carbonyl)-3-methylpiperazine-1-carboxylate]"
10,230 nM,"C[C@@H]1CN(C(=O)c2ccc3c(Cl)cc(-c4cc(F)c(O)c(F)c4)nc3c2)CCN1C(=O)OCCCF [B235, 3-Fluoropropyl (R)-4-(4-chloro-2-(3,5-difluoro-4-hydroxyphenyl)quinoline-7-carbonyl)-2-methylpiperazine-1-carboxylate]"
11,190 nM,"CCCOC(=O)N1CCN(C(=O)c2ccc3c(Cl)cc(-c4cnn(CC(N)=O)c4)nc3c2)CC1 [B249, Propyl 4-(2-(1-(2-amino-2-oxoethyl)-1H-pyrazol-4-yl)-4-chloroquinoline-7-carbonyl)piperazine-1-carboxylate]"
12,160 nM,"CNC(=O)c1ccc(-c2cc(Cl)c3ccc(C(=O)N4CCN(C(=O)OCCCF)[C@H](C)C4)cc3n2)cc1 [B233, 3-Fluoropropyl (R)-4-(4-chloro-2-(4-(methylcarbamoyl)phenyl)quinoline-7-carbonyl)-2-methylpiperazine-1-carboxylate]"
13,150 nM,"CCCOC(=O)N1CCN(C(=O)c2ccc3c(Cl)cc(-c4ccc5c(c4)CNC5=O)nc3c2)CC1 [B232, Propyl 4-(4-chloro-2-(1-oxoisoindolin-5-yl)quinoline-7-carbonyl)piperazine-1-carboxylate]"
14,140 nM,"Cn1ccc(-c2cc(Cl)c3ccc(C(=O)N4CCN(C(=O)OCCF)CC4)cc3n2)c1 [B248, 2-Fluoroethyl 4-(4-chloro-2-(1-methyl-1H-pyrrol-3-yl)quinoline-7-carbonyl)piperazine-1-carboxylate]"
15,98 nM,"C[C@@H]1CN(C(=O)c2ccc3c(Cl)cc(-c4ccn(C)c4)nc3c2)CCN1C(=O)OCCCF [B234, 3-Fluoropropyl (R)-4-(4-chloro-2-(1-methyl-1H-pyrrol-3-yl)quinoline-7-carbonyl)-2-methylpiperazine-1-carboxylate]"
16,54 nM,"CCCOC(=O)N1CCN(C(=O)c2ccc3c(Cl)cc(-c4cc[nH]c4)nc3c2)[C@@H](C)C1 [B254, Propyl (S)-4-(4-chloro-2-(1H-pyrrol-3-yl)quinoline-7-carbonyl)-3-methylpiperazine-1-carboxylate]"
17,43 nM,"CCCOC(=O)N1CCN(C(=O)c2ccc3c(Cl)cc(-c4cc[nH]c4)nc3c2)C[C@H]1C [B251, Propyl (R)-4-(4-chloro-2-(1H-pyrrol-3-yl)quinoline-7-carbonyl)-2-methylpiperazine-1-carboxylate]"
18,28 nM,"CCCOC(=O)N1CCN(C(=O)c2ccc3c(Cl)cc(-c4ccc(CO)cc4)nc3c2)CC1 [B255, Propyl 4-(4-chloro-2-(4-(hydroxymethyl)phenyl)quinoline-7-carbonyl)piperazine-1-carboxylate]"
